Values after ≈ are worked out from the molar mass of the structure shown. Where two headings read alike, the source gives them in different places.
What was measured:
[1] = tested on: Acinetobacter baumannii; assay: MIC with/without sub-MIC colistin, Acinetobacter baumannii; assay type: cell-based
Protocol: (§1) The MIC of the rhodanines and control antibiotics, in the presence of a sub-inhibitory concentration of colistin or polymixin B nonapeptide (PMBN), against Gram-negative bacteria was evaluated as described before. The antibacterial activity of the rhodanines was further investigated against E. coli SM1411Δ acrAB, a strain that is deficient in the multidrug-resistant AcrAB efflux pump, as described before.

[2] = tested on: Salmonella Typhimurium; assay: MIC with/without PMBN, Salmonella Typhimurium; assay type: cell-based
Protocol: as §1

[3] = tested on: Escherichia coli O157:H7; assay: MIC with/without sub-MIC colistin, Escherichia coli O157:H7; assay type: cell-based
Protocol: as §1

[4] = tested on: MRSA USA300; assay: MIC against MRSA USA300 with and without 4% human serum albumin; assay type: cell-based, Staphylococcus aureus; settings: Staphylococcus aureus, read-out: MIC against MRSA USA300
Protocol: The minimum inhibitory concentration (MIC) and the minimum bactericidal concentration (MBC) of rhodanine compounds 1 to 7 were determined against various Gram-positive and Gram-negative pathogens (S1 Table) following the guidelines of the Clinical and Laboratory Standards Institute (CLSI)[4]. The broth microdilution technique was used, followed by subculturing on agar plates that were rhodanine—free. […] The MICs reported represent the lowest concentration of each compound necessary to inhibit bacterial growth and the MBCs represent the lowest concentration required to reduce the initial bacterial inoculum by ≥ 99.9%.
The antimicrobial activity of rhodanine compounds in the presence of 4% human serum albumin (HSA) was tested against MRSA USA300. The MICs of rhodanine compounds and control antibiotics (vancomycin and daptomycin) were tested as described in the methods above using tryptic soy broth spiked with 4% HSA. We also synthesized and tested three more compounds, ethyl ester and amide of rhodanine 2 (Rh 8 and Rh 10, respectively) and ethyl ester of rhodanine 3 (Rh 9) to determine the influence of a carboxyl group modification toward anti-MRSA activity and human serum albumin (HSA) binding.

[5] = tested on: Klebsiella pneumoniae; assay: MIC with/without PMBN, Klebsiella pneumoniae; assay type: cell-based
Protocol: as §1

[6] = tested on: Escherichia coli Δ acrAB; assay: MIC against E. coli 1411 and AcrAB efflux pump deficient E. coli SM1411Δ acrAB; assay type: cell-based
Protocol: as §1

[7] = tested on: Pseudomonas aeruginosa; assay: MIC with/without sub-MIC colistin, Pseudomonas aeruginosa; assay type: cell-based
Protocol: as §1

[8] = tested on: Pseudomonas aeruginosa; assay: MIC with/without PMBN, Pseudomonas aeruginosa; assay type: cell-based
Protocol: as §1

[9] = tested on: Salmonella Typhimurium; assay: MIC with/without sub-MIC colistin, Salmonella Typhimurium; assay type: cell-based
Protocol: as §1

[10] = tested on: Acinetobacter baumannii; assay: MIC with/without PMBN, Acinetobacter baumannii; assay type: cell-based
Protocol: as §1

[11] = tested on: Escherichia coli O157:H7; assay: MIC with/without PMBN, Escherichia coli O157:H7; assay type: cell-based
Protocol: as §1

[12] = tested on: Klebsiella pneumoniae; assay: MIC with/without sub-MIC colistin, Klebsiella pneumoniae; assay type: cell-based
Protocol: as §1

[13] = tested on: Mycobacterium smegmatis; assay: Broth microdilution MIC/MBC, Mycobacterium smegmatis; assay type: cell-based; settings: Mycolicibacterium smegmatis, ATCC14468, M. Smegmatis ATCC 14468
[14] = Acinetobacter baumannii ATCC BAA747, colistin (+) […], read-out: MIC
[15] = Acinetobacter baumannii ATCC BAA19606, colistin (+) […], read-out: MIC
[16] = Acinetobacter baumannii, ATCCBAA747
[17] = Acinetobacter baumannii, ATCCBAA19606
[18] = Salmonella Typhimurium ATCC 700720, PMBN (+) 4 μg/mL, read-out: MIC
[19] = Salmonella enterica, ATCC 700720 / TYPHIMURIUM
[20] = Escherichia coli O157:H7 ATCC 35150, colistin (+) […], read-out: MIC
[21] = Escherichia coli O157:H7 ATCC 700728, colistin (+) […], read-out: MIC
[22] = Klebsiella pneumoniae ATCC BAA 1706, PMBN (+) 4 μg/mL
[23] = Klebsiella pneumoniae ATCC BAA 2146, PMBN (+) 4 μg/mL
[24] = E.coli 1411 SM (Δ acrAB, AcrAB efflux pump deficient)
[25] = Pseudomonas aeruginosa ATCC 921, colistin (+) […], read-out: MIC
[26] = Pseudomonas aeruginosa, ATCC921
[27] = Pseudomonas aeruginosa ATCC 9721, PMBN (+) 4 μg/mL, read-out: MIC
[28] = Pseudomonas aeruginosa, ATCC9721
[29] = Salmonella Typhimurium ATCC 700720, colistin (+) […], read-out: MIC
[30] = Acinetobacter baumannii ATCC BAA747, PMBN (+) 4 μg/mL, read-out: MIC
[31] = Acinetobacter baumannii ATCC BAA19606, PMBN (+) 4 μg/mL, read-out: MIC
[32] = Escherichia coli O157:H7 ATCC 35150, PMBN (+) 4 μg/mL, read-out: MIC
[33] = Escherichia coli O157:H7 ATCC 700728, PMBN (+) 4 μg/mL, read-out: MIC
[34] = Klebsiella pneumoniae ATCC BAA 2146, colistin (+) […]

SMILES: CCCCCCCCCC(=O)N[C@@H](Cc1c[nH]c2ccccc12)C(=O)N[C@H](CC(N)=O)C(=O)N[C@@H](CC(=O)O)C(=O)N[C@@H]1C(=O)NCC(=O)N[C@@H](CCCN)C(=O)N[C@@H](CC(=O)O)C(=O)N[C@H](C)C(=O)N[C@@H](CC(=O)O)C(=O)NCC(=O)N[C@H](CO)C(=O)N[C@@H]([C@H](C)CC(=O)O)C(=O)N[C@@H](CC(=O)c2ccccc2N)C(=O)O[C@@H]1C [Daptomycin, reference compound]
- MIC [1, 14]: >64 µM
- MIC [1, 15]: >64 µM
- MIC [1, 16]: > 128 µM
- MIC [1, 17]: > 128 µM
- MIC [2, 18]: >128 µM
- MIC [2, 19]: > 128 µM
- MIC ([3]; ATCC35150, Escherichia coli O157:H7 ATCC 35150, colistin (-), read-out: MIC): > 128 µM
- MIC ([3]; ATCC700728, Escherichia coli O157:H7 ATCC 700728, colistin (-), read-out: MIC): > 128 µM
- MIC [3, 20]: >64 µM
- MIC [3, 21]: >64 µM
- MIC ([4]; 24 h, Media TSB + 4% HSA): 64 µM
- MIC ([4]; Media TSB): 4 µM (≈ 6.48 µg/mL)
- MIC [5, 22]: >64 µM
- MIC [5, 23]: >64 µM
- MIC ([5]; Klebsiella pneumoniae, BAA1706): > 128 µM
- MIC ([5]; Klebsiella pneumoniae, BAA2146): > 128 µM
- MIC ([6]; E.coli 1411): > 64 µM
- MIC [6, 24]: > 64 µM
- MIC [7, 25]: >64 µM
- MIC [7, 26]: > 128 µM
- MIC [8, 27]: >64 µM
- MIC [8, 28]: > 128 µM
- MIC [9, 29]: >64 µM
- MIC [9, 19]: > 128 µM
- MIC [10, 30]: >64 µM
- MIC [10, 31]: >64 µM
- MIC [10, 16]: > 128 µM
- MIC [10, 17]: > 128 µM
- MIC ([11]; ATCC35150, Escherichia coli O157:H7 ATCC 35150, PMBN (-), read-out: MIC): > 256 µM
- MIC ([11]; ATCC700728, Escherichia coli O157:H7 ATCC 700728, PMBN (-), read-out: MIC): > 128 µM
- MIC [11, 32]: >256 µM
- MIC [11, 33]: >64 µM
- MIC [12, 34]: >64 µM
- MIC ([12]; Klebsiella pneumoniae, BAA2146): > 128 µM

SMILES: CC(=O)O[C@H]1C[C@@]2(C)[C@@H](C[C@@H](O)[C@H]3[C@@]4(C)CC[C@@H](O)[C@@H](C)[C@@H]4CC[C@@]32C)/C1=C(\CCC=C(C)C)C(=O)O [Fusidic acid, fusidic acid, reference compound]
- MIC [1, 14]: 1 µM (≈ 0.517 µg/mL)
- MIC [1, 15]: ≤0.5 µM
- MIC [1, 16]: > 128 µM
- MIC [1, 17]: 128 µM (≈ 66.1 µg/mL)
- MIC [2, 18]: 64 µM (≈ 33.1 µg/mL)
- MIC [2, 19]: > 128 µM
- MIC [3, 20]: ≤0.5 µM
- MIC [3, 21]: ≤0.5 µM
- MIC ([3]; Escherichia coli, ATCC35150): > 128 µM
- MIC ([3]; Escherichia coli, ATCC700728): > 128 µM
- MIC [5, 22]: 16 µM (≈ 8.27 µg/mL)
- MIC [5, 23]: >64 µM
- MIC ([5]; Klebsiella pneumoniae, BAA1706): > 128 µM
- MIC ([5]; Klebsiella pneumoniae, BAA2146): > 128 µM
- MIC ([6]; E.coli 1411): > 64 µM
- MIC [6, 24]: 4 µM (≈ 2.07 µg/mL)
- MIC [7, 25]: >64 µM
- MIC [7, 26]: > 128 µM
- MIC [8, 27]: 4 µM (≈ 2.07 µg/mL)
- MIC [8, 28]: > 128 µM
- MIC [9, 29]: 64 µM (≈ 33.1 µg/mL)
- MIC [9, 19]: > 128 µM
- MIC [10, 30]: 2 µM (≈ 1.03 µg/mL)
- MIC [10, 31]: 2 µM (≈ 1.03 µg/mL)
- MIC [10, 16]: > 128 µM
- MIC [10, 17]: 128 µM (≈ 66.1 µg/mL)
- MIC [11, 32]: 4 µM (≈ 2.07 µg/mL)
- MIC [11, 33]: 32 µM (≈ 16.5 µg/mL)
- MIC ([11]; Escherichia coli, ATCC35150): > 256 µM
- MIC ([11]; Escherichia coli, ATCC700728): > 128 µM
- MIC [12, 34]: >64 µM
- MIC ([12]; Klebsiella pneumoniae, BAA2146): > 128 µM

SMILES: CO[C@H]1/C=C/O[C@@]2(C)Oc3c(C)c(O)c4c(O)c(c(/C=N/N5CCN(C)CC5)c(O)c4c3C2=O)NC(=O)/C(C)=C\C=C\[C@H](C)[C@H](O)[C@@H](C)[C@@H](O)[C@@H](C)[C@H](OC(C)=O)[C@@H]1C [Rifampicin, rifampicin, reference compound]
- MBC ([13]; read-out: MBC): > 64 µM
- MIC ([13]; read-out: MIC): 32 µM (≈ 26.3 µg/mL)

Source: publication PMC5053523, “In Vitro Antibacterial Activity of Rhodanine Derivatives against Pathogenic Clinical Isolates” (PLoS ONE, 2016)
